Source: patent US8632832B2, “Direct dissolution” (Phares Pharmaceutical Research N.V., priority 2005, dated 2014)

Key:
[1] = Degree of dissolution of the carotenoid in the oily phase: filtration through a 0.45 μm pore size filter, then HPLC of the filtrate; format: physicochemical
Description: “Dissolving” or “dissolution” means obtaining molecular dispersions or molecular aggregates of a carotenoid which may be monomers, dimers, trimers etc and/or colloidal dispersions of the carotenoid. Assessment of the degree of dissolution of the carotenoid in an oily phase is performed by filtration of the oily phase through a 0.45 μm pore size filter, followed by HPLC determination of the carotenoid content in the filtrate and compared with the total carotenoid concentration in the unfiltered oily phase. “Substantially” means at least 40 wt %.
(§1) The oily astaxanthin solution may be further processed by mixing with fish feed pellets.

[2] = HPLC analysis of trans/cis isomer content and degradation products after in-line heating and cooling; format: physicochemical; conditions: 1 s
From the text: as §1

[3] = Example 2: 1500 or 250 ppm astaxanthin composition, heated 150° C., then cooled

CC1=C(/C=C/C(C)=C/C=C/C(C)=C/C=C/C=C(C)/C=C/C=C(C)/C=C/C2=C(C)C(=O)[C@@H](O)CC2(C)C)C(C)(C)C[C@H](O)C1=O [astaxanthin]
degree of dissolution of astaxanthin after filtration through 0.45 μm filter (HPLC) ([1]; Example 2: 1500 or 250 ppm astaxanthin composition in soya bean oil/fish oil, heated 150° C., transit time 1 s, then cooled): completely solubilised | degree of dissolution of astaxanthin after filtration through 0.45 μm filter (HPLC) ([1]; Example 3: 250 ppm astaxanthin composition in soy bean oil/fish oil, heated 126° C., 1 s, then cooled with fish oil of 23° C.): completely solubilised | all trans-astaxanthin content [2, 3]: 75% | cis isomers content [2, 3]: 25% | further degradation products [2, 3]: no further degradation products | cis-isomers content ([2]; Example 3: 250 ppm astaxanthin composition, heated 126° C., then cooled with fish oil of 23° C.): 12%
